pIC50: −log10 of the molar value. The source made the active and inactive calls. The rule behind the calls is not given here.
How the values were obtained:
[1] = molecular target: T1, Lysine-specific demethylase 5A (Homo sapiens, UniProt P29375); assay: Inhibition of KDM5A (unknown origin) using substrate peptide/ascorbate/2-OG/ Fe(2) as substrate at 10 uM preincubated for 15 mins followed by addition of substrate peptide/ ascorbate/2-OG/ Fe(2) measured after 1 hr by AlphaLISA method
[2] = molecular target: T1, Lysine-specific demethylase 5A; assay: […] of KDM5A in human ZR-75-1 cells effect on H3K4me3 expression after 48 hrs by Western blot analysis; format: cell-based
[3] = molecular target: T1, Lysine-specific demethylase 5A; assay: Inhibition of KDM5A (unknown origin) using substrate peptide/ascorbate/2-OG/ Fe(2) as substrate preincubated for 15 mins followed by addition of substrate peptide/ ascorbate/2-OG/ Fe(2) measured after 1 hr by AlphaLISA method
[4] = molecular target: Probable JmjC domain-containing histone demethylation protein 2C (Homo sapiens, UniProt Q15652); assay: Inhibition of KDM3C (unknown origin) using substrate peptide/ascorbate/2-OG/ Fe(2) as substrate preincubated for 15 mins followed by addition of substrate peptide/ ascorbate/2-OG/ Fe(2) measured after 1 hr by AlphaLISA method
[5] = molecular target: T2, Lysine-specific demethylase 3A (Homo sapiens, UniProt Q9Y4C1); assay: Inhibition of KDM3A (unknown origin) using substrate peptide/ascorbate/2-OG/ Fe(2) as substrate preincubated for 15 mins followed by addition of substrate peptide/ ascorbate/2-OG/ Fe(2) measured after 1 hr by AlphaLISA method
T2 sequence (Q9Y4C1 whole entry): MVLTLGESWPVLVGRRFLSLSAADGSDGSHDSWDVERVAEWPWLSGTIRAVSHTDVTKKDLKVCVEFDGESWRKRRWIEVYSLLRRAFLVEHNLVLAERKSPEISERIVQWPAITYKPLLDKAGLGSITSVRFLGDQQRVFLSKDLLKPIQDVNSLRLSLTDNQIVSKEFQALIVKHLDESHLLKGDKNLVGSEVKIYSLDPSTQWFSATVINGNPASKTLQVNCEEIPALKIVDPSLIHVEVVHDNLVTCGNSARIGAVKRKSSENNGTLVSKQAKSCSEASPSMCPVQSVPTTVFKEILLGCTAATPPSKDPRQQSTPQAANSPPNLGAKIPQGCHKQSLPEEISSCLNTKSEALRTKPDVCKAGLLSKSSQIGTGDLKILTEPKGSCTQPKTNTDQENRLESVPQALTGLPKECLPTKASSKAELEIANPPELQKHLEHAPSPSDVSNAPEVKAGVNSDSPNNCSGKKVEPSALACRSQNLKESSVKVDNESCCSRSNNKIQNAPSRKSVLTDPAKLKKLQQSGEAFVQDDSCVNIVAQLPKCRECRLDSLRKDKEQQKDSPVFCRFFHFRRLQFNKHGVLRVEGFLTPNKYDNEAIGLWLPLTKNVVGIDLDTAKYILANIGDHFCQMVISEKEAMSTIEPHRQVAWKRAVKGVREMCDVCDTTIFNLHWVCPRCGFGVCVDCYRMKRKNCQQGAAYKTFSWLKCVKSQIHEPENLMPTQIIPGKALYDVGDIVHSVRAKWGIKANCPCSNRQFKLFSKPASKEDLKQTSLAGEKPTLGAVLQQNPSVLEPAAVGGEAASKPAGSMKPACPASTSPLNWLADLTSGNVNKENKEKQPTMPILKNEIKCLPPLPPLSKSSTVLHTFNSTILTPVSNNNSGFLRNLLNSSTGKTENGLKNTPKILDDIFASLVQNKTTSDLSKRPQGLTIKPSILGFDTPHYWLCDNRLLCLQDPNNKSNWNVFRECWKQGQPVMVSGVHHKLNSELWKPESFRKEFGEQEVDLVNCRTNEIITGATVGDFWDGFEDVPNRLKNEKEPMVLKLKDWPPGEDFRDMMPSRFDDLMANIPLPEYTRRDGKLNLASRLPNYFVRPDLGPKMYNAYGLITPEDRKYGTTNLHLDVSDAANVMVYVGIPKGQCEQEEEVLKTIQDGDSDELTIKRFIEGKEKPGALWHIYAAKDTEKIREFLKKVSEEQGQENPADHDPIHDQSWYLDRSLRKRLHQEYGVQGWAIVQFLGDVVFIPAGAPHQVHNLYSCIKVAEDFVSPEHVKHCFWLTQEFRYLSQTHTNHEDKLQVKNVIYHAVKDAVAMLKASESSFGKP

[6] = molecular target: Lysine-specific demethylase 5B (Homo sapiens, UniProt Q9UGL1); assay: Inhibition of KDM5B (unknown origin) using substrate peptide/ascorbate/2-OG/ Fe(2) as substrate preincubated for 15 mins followed by addition of substrate peptide/ ascorbate/2-OG/ Fe(2) measured after 1 hr by AlphaLISA method
[7] = molecular target: T3, Lysine-specific demethylase 4E (Homo sapiens, UniProt B2RXH2); assay: Inhibition of KDM4E (unknown origin) using substrate peptide/ascorbate/2-OG/ Fe(2) as substrate preincubated for 15 mins followed by addition of substrate peptide/ ascorbate/2-OG/ Fe(2) measured after 1 hr by AlphaLISA method
T3 sequence (B2RXH2 whole entry): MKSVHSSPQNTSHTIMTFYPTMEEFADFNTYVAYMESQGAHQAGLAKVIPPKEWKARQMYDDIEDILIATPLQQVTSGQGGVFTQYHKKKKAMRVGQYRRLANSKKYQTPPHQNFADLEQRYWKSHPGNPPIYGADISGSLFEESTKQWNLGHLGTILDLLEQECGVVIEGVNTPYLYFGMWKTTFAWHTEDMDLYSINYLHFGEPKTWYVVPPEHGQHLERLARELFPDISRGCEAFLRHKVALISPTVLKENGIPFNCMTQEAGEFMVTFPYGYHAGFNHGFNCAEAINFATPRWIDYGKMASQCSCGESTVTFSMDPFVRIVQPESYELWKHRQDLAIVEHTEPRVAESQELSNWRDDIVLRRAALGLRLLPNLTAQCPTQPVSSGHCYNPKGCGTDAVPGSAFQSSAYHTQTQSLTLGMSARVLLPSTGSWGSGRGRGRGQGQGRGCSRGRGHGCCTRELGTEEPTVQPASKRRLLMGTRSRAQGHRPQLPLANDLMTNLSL

[8] = molecular target: Lysine-specific demethylase 6B (Homo sapiens, UniProt O15054); assay: Inhibition of KDM6B (unknown origin) using substrate peptide/ascorbate/2-OG/ Fe(2) as substrate preincubated for 15 mins followed by addition of substrate peptide/ ascorbate/2-OG/ Fe(2) measured after 1 hr by AlphaLISA method

T1 sequence (P29375 whole entry): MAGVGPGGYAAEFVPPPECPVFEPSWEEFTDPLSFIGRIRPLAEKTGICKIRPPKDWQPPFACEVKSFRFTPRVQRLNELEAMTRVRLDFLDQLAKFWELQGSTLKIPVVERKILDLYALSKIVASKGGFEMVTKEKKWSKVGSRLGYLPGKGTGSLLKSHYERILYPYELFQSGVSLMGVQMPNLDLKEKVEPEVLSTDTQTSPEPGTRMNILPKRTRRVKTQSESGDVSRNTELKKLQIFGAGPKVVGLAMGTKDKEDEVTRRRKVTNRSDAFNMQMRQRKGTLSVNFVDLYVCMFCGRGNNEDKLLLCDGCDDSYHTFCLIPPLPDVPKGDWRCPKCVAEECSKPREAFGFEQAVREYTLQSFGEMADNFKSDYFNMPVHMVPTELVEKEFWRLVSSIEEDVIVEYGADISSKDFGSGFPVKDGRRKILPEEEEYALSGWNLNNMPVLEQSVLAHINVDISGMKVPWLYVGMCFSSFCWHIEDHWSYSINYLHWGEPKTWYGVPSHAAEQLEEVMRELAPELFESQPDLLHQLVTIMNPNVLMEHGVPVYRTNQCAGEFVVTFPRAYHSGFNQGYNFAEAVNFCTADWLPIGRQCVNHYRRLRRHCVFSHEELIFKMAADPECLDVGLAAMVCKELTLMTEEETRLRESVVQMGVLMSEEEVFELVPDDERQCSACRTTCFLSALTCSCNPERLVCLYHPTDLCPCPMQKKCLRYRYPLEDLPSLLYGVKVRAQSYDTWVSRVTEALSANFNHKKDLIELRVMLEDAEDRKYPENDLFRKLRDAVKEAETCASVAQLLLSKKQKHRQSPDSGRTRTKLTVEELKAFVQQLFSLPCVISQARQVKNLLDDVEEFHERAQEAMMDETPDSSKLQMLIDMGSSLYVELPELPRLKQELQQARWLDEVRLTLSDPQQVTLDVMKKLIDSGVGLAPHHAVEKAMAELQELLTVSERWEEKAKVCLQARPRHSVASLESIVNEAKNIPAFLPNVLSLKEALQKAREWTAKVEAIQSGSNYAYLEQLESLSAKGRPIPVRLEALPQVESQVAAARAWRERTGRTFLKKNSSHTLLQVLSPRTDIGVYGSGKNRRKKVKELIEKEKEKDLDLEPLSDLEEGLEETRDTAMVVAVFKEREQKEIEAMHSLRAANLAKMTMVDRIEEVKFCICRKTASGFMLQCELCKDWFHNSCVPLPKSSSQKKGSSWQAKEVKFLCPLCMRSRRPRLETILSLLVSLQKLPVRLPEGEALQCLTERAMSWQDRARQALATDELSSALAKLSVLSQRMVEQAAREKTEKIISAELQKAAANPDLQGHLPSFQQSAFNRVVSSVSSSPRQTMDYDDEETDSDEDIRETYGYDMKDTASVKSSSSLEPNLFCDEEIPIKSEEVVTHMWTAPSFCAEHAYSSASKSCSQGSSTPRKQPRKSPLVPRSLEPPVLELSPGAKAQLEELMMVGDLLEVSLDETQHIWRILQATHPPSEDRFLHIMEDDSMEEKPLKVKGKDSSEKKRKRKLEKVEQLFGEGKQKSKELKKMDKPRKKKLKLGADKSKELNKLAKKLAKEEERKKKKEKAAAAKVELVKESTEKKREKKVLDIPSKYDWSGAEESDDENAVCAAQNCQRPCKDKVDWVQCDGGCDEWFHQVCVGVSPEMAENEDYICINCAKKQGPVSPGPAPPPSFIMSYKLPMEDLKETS
Sequence of Probable JmjC domain-containing histone demethylation protein 2C (Q15652 whole entry, the tested form may be a part): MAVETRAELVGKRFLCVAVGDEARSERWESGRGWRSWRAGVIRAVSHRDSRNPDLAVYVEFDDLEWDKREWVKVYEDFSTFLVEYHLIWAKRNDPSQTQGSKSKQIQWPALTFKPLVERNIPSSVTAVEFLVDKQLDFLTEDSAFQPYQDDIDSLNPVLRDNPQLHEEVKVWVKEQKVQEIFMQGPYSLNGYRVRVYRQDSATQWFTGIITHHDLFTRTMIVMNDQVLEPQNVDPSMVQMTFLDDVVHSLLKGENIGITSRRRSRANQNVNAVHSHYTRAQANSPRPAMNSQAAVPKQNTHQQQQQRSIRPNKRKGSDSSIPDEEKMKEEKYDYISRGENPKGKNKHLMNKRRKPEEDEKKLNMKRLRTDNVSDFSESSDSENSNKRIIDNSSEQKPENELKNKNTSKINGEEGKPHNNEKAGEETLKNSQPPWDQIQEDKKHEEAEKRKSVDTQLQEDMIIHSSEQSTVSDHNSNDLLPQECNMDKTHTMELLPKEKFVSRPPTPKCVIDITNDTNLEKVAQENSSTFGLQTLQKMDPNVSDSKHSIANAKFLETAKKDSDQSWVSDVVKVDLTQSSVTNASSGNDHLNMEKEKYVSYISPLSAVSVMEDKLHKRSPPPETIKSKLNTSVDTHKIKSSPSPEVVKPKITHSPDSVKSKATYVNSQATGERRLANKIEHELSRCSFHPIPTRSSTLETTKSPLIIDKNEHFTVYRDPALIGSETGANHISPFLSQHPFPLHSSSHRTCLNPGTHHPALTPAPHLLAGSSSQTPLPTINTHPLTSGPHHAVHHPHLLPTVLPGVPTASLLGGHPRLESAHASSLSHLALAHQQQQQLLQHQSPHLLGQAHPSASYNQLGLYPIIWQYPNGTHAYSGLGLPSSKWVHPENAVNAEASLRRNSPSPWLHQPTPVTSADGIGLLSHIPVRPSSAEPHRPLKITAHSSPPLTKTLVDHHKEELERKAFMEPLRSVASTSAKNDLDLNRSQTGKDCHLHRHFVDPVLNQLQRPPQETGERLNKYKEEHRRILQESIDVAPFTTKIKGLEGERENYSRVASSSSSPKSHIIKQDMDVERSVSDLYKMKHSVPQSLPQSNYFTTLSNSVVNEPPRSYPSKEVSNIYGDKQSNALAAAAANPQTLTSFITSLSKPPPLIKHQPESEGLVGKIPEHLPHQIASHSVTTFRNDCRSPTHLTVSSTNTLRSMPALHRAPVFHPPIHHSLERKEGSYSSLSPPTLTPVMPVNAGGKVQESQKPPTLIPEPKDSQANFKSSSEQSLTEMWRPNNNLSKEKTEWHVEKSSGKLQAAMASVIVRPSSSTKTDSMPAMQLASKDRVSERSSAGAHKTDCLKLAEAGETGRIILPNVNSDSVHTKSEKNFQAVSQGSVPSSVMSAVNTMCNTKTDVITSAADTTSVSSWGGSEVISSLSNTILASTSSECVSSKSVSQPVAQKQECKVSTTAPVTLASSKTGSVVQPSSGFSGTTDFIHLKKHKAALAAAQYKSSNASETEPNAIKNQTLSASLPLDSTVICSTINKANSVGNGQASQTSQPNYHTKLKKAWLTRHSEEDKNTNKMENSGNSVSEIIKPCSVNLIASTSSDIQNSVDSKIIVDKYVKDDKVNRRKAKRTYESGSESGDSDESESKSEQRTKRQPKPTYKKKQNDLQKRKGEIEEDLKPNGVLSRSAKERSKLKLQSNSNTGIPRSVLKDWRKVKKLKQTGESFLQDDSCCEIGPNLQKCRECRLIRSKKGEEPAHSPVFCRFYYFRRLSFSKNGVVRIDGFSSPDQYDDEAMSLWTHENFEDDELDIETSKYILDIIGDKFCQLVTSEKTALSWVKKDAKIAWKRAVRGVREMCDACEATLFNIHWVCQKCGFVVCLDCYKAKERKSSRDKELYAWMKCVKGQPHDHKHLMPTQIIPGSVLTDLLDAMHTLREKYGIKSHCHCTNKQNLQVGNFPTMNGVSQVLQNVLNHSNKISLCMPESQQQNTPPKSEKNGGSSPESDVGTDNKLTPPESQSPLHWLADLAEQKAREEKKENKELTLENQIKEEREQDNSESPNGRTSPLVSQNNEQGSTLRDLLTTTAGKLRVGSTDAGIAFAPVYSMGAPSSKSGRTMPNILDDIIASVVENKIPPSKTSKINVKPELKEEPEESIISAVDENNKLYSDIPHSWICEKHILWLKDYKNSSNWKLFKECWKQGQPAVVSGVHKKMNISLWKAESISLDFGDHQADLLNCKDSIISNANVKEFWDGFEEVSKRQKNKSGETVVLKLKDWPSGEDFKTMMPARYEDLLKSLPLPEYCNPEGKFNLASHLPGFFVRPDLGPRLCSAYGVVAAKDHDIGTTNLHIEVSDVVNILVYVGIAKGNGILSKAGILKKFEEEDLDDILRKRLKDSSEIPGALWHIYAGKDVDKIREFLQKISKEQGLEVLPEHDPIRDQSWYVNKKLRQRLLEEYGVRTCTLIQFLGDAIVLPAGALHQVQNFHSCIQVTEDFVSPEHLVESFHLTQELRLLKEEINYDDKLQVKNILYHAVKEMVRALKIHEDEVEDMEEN

Compound	inhibition [1]	pIC50 [3]	also measured
Cc1ccnc(NN)n1	-6%		Activity [2]: inactive
Cc1ccc(C(=O)c2coc3c2C(=O)C(=O)C(Br)=C3)cc1		5.30	
Oc1ccccc1/C=N/Nc1ncc(F)cn1			Activity [2]: inactive
NNC(=O)c1ccc(O)cc1		4.89	
O=C1c2ccccc2C(=O)c2c1ccc1c(=O)n(-c3ccc(Cl)cc3)[nH]c21		4.89	
O=C(O)c1ccnc(N/N=C/c2ccccc2)n1	0%		
NNc1ncc(F)c(N2CCOCC2)n1	0%		
NNc1ncc(F)cn1	10%		
NNc1nccc(N2CCOCC2)n1			Activity [2]: inactive
NNc1ncc(Cl)cn1			Activity [2]: inactive
NNc1nccc(Oc2ccccc2)n1			Activity [2]: inactive
NNc1nccc(Oc2ccc(F)cc2)n1			Activity [2]: inactive
COc1ccc(Oc2ccnc(NN)n2)cc1			Activity [2]: inactive
NNc1nccc(C(F)(F)F)n1			Activity [2]: inactive
N#Cc1ccc(Nc2nc(NN)ncc2[N+](=O)[O-])cc1	14%		
NNc1ncc2ccccc2n1			Activity [2]: inactive
c1ccc(Cc2nnc3sc(-c4ccccn4)nn23)cc1		4.60	
CCN(C1=C(Cl)C(=O)N(c2cccc(C)c2C)C1=O)c1ccccc1		4.08	

Continued, in another order:

inhibition [1]	pIC50 [3]	Compound	also measured
3%		O=C(O)c1ccnc(N/N=C/c2ccco2)n1	
42%		Oc1ccccc1/C=N/Nc1nccc(N2CCOCC2)n1	
44%		Cc1ccnc(N/N=C/c2ccccc2O)n1	
	4.19	CNc1ccccc(C(=O)/C=C/c2cccc(Oc3ccccc3)c2)c1=O	
	5.38	O=C(COc1cc(O)c2c(=O)cc(-c3ccccc3)oc2c1)OCc1ccccc1	
26%		NNc1nccc(-c2cccc(C(=O)O)c2)n1	
	4.60	O=c1c2ccccc2oc2c(O)ccc(O)c12	
88%		O=C(O)c1ccnc(N/N=C/c2ccccc2O)n1	
99%	6.66	NNc1nccc(C(=O)O)n1	pIC50 [4]: 5.72; pIC50 [5]: 4.37; pIC50 [6]: < 4.00; pIC50 [7]: 4.89; pIC50 [8]: < 4.00
58%	5.64	Oc1ccccc1/C=N/Nc1ncc(F)c(N2CCOCC2)n1	
19%		Oc1ccccc1/C=N/Nc1ncc(Cl)cn1	
	5.15	O=C(NNc1c2ccccc2nc2ccccc12)c1ccccn1	
32%		Oc1ccccc1/C=N/Nc1ncccn1	
8%		NNc1ncccn1	

Reference: ChEMBL document CHEMBL3792324, “Discovery of KDM5A inhibitors: Homology modeling, virtual screening and structure-activity relationship analysis” (Bioorg Med Chem Lett, 2016)
